ChEMBL document CHEMBL3046815, “Evaluation of fungicides for the management of Botryosphaeria dieback diseases of grapevines” (Pest Manag Sci, 2012)

Assays:
Neofusicoccum luteum [1] = assay: Fungicidal activity against Neofusicoccum luteum infected Pinot noir grapevine assessed as pathogen incidence at 25 g AI /100 L applied 24 hr prior inoculation to pruning wound measured after 3 months; type: functional
Neofusicoccum luteum [2] = assay: Fungicidal activity against Neofusicoccum luteum infected Pinot noir grapevine assessed as dieback lesion length at 25 g AI /100 L applied 24 hr prior inoculation to pruning wound measured after 3 months; type: functional
Diplodia mutila [3] = assay: Fungicidal activity against Diplodia mutila Q assessed as conidial germination inhibition after 48 hr; type: functional, organism-based; conditions: pooled result: one value given for 3 cell lines, strains, targets or settings
Neofusicoccum luteum [4] = assay: Fungicidal activity against Neofusicoccum luteum infected Pinot noir grapevine assessed as non-lesion areas compound applied 24 hr prior inoculation to pruning wound measured after 1 year; type: functional; design: concentration or dose not given beside the values
Neofusicoccum luteum [5] = assay: Fungicidal activity against Neofusicoccum luteum infected Pinot noir grapevine assessed as pathogen incidence at dieback edges compound applied 24 hr prior inoculation to pruning wound measured after 1 year; type: functional; design: concentration or dose not given beside the values
Neofusicoccum luteum [6] = assay: Fungicidal activity against Neofusicoccum luteum infected Pinot noir grapevine assessed as pathogen incidence at dieback sites compound applied 24 hr prior inoculation to pruning wound measured after 1 year; type: functional; design: concentration or dose not given beside the values
Neofusicoccum luteum [7] = assay: Fungicidal activity against Neofusicoccum luteum N(12)2 assessed as conidial germination inhibition after 48 hr; type: functional, organism-based; conditions: pooled result: one value given for 3 cell lines, strains, targets or settings
Neofusicoccum australe [8] = assay: Fungicidal activity against Neofusicoccum australe J-3 assessed as conidial germination inhibition after 48 hr; type: functional, organism-based; conditions: pooled result: one value given for 3 cell lines, strains, targets or settings
Neofusicoccum luteum [9] = assay: Fungicidal activity against Neofusicoccum luteum N(12)2 assessed as mycelial growth inhibition after 48 hr; type: functional, organism-based; conditions: pooled result: one value given for 3 cell lines, strains, targets or settings
Neofusicoccum australe [10] = assay: Fungicidal activity against Neofusicoccum australe J-3 assessed as mycelial growth inhibition after 48 hr; type: functional, organism-based; conditions: pooled result: one value given for 3 cell lines, strains, targets or settings
Neofusicoccum luteum [11] = assay: Fungicidal activity against Neofusicoccum luteum infected Pinot noir grapevine assessed as mean pathogen compound applied 24 hr prior inoculation to pruning wound measured after 1 year; type: functional; design: concentration or dose not given beside the values
Neofusicoccum luteum [12] = assay: Fungicidal activity against Neofusicoccum luteum infected Pinot noir grapevine assessed as pathogen incidence at area beyond node compound applied 24 hr prior inoculation to pruning wound measured after 1 year; type: functional; design: concentration or dose not given beside the values
Neofusicoccum luteum [13] = assay: Fungicidal activity against Neofusicoccum luteum infected Pinot noir grapevine assessed as pathogen incidence at closest side shoot compound applied 24 hr prior inoculation to pruning wound measured after 6 months; type: functional; design: concentration or dose not given beside the values
Neofusicoccum luteum [14] = assay: Fungicidal activity against Neofusicoccum luteum infected Pinot noir grapevine assessed as dieback lesion length at 210 g AI /100 L applied 24 hr prior inoculation to pruning wound measured after 3 months; type: functional
Neofusicoccum luteum [15] = assay: Fungicidal activity against Neofusicoccum luteum infected Pinot noir grapevine assessed as pathogen incidence at 210 g AI /100 L applied 24 hr prior inoculation to pruning wound measured after 3 months; type: functional
Diplodia mutila [16] = assay: Fungicidal activity against Diplodia mutila Q assessed as mycelial growth inhibition after 48 hr; type: functional, organism-based; conditions: pooled result: one value given for 3 cell lines, strains, targets or settings
Neofusicoccum luteum [17] = assay: Fungicidal activity against Neofusicoccum luteum infected Pinot noir grapevine assessed as pathogen incidence at 39 g AI /100 L applied 24 hr prior inoculation to pruning wound measured after 3 months; type: functional
Neofusicoccum luteum [18] = assay: Fungicidal activity against Neofusicoccum luteum infected Pinot noir grapevine assessed as dieback lesion length at 39 g AI /100 L applied 24 hr prior inoculation to pruning wound measured after 3 months; type: functional
Neofusicoccum luteum [19] = assay: Fungicidal activity against Neofusicoccum luteum infected Pinot noir grapevine assessed as dieback lesion length at 2.5 g AI /100 L applied 24 hr prior inoculation to pruning wound measured after 3 months; type: functional
Neofusicoccum luteum [20] = assay: Fungicidal activity against Neofusicoccum luteum infected Pinot noir grapevine assessed as pathogen incidence at 2.5 g AI /100 L applied 24 hr prior inoculation to pruning wound measured after 3 months; type: functional
Neofusicoccum luteum [21] = assay: Fungicidal activity against Neofusicoccum luteum infected Pinot noir grapevine assessed as pathogen incidence at 4 g AI /100 L applied 24 hr prior inoculation to pruning wound measured after 3 months; type: functional
Neofusicoccum luteum [22] = assay: Fungicidal activity against Neofusicoccum luteum infected Pinot noir grapevine assessed as dieback lesion length at 4 g AI /100 L applied 24 hr prior inoculation to pruning wound measured after 3 months; type: functional
Neofusicoccum luteum [23] = assay: Fungicidal activity against Neofusicoccum luteum infected Pinot noir grapevine assessed as pathogen incidence at 50 g AI /100 L applied 24 hr prior inoculation to pruning wound measured after 3 months; type: functional
Neofusicoccum luteum [24] = assay: Fungicidal activity against Neofusicoccum luteum infected Pinot noir grapevine assessed as dieback lesion length at 50 g AI /100 L applied 24 hr prior inoculation to pruning wound measured after 3 months; type: functional
Neofusicoccum luteum [25] = assay: Fungicidal activity against Neofusicoccum luteum infected Pinot noir grapevine assessed as dieback lesion length at 45 g AI /100 L applied 24 hr prior inoculation to pruning wound measured after 3 months; type: functional
Neofusicoccum luteum [26] = assay: Fungicidal activity against Neofusicoccum luteum infected Pinot noir grapevine assessed as pathogen incidence at 45 g AI /100 L applied 24 hr prior inoculation to pruning wound measured after 3 months; type: functional
Neofusicoccum luteum [27] = assay: Fungicidal activity against Neofusicoccum luteum infected Pinot noir grapevine assessed as pathogen incidence at 55 g AI /100 L applied 24 hr prior inoculation to pruning wound measured after 3 months; type: functional
Neofusicoccum luteum [28] = assay: Fungicidal activity against Neofusicoccum luteum infected Pinot noir grapevine assessed as dieback lesion length at 55 g AI /100 L applied 24 hr prior inoculation to pruning wound measured after 3 months; type: functional
Neofusicoccum luteum [29] = assay: Fungicidal activity against Neofusicoccum luteum infected Pinot noir grapevine assessed as pathogen incidence at 32 g AI /100 L applied 24 hr prior inoculation to pruning wound measured after 3 months; type: functional
Neofusicoccum luteum [30] = assay: Fungicidal activity against Neofusicoccum luteum infected Pinot noir grapevine assessed as dieback lesion length at 32 g AI /100 L applied 24 hr prior inoculation to pruning wound measured after 3 months; type: functional
Neofusicoccum luteum [31] = assay: Fungicidal activity against Neofusicoccum luteum infected Pinot noir grapevine assessed as dieback lesion length at 40 g AI /100 L applied 24 hr prior inoculation to pruning wound measured after 3 months; type: functional
Neofusicoccum luteum [32] = assay: Fungicidal activity against Neofusicoccum luteum infected Pinot noir grapevine assessed as pathogen incidence at 40 g AI /100 L applied 24 hr prior inoculation to pruning wound measured after 3 months; type: functional
Neofusicoccum luteum [33] = assay: Fungicidal activity against Neofusicoccum luteum infected Pinot noir grapevine assessed as pathogen incidence at 80 g AI /100 L applied 24 hr prior inoculation to pruning wound measured after 3 months; type: functional, organism-based
Neofusicoccum luteum [34] = assay: Fungicidal activity against Neofusicoccum luteum infected Pinot noir grapevine assessed as dieback lesion length at 80 g AI /100 L applied 24 hr prior inoculation to pruning wound measured after 3 months; type: functional, organism-based

Compound | EC50 (Diplodia mutila [3]) [mgAi/L] | Activity (Neofusicoccum luteum [4]) [%] | Activity (Neofusicoccum luteum [5]) [%] | Activity (Neofusicoccum luteum [6]) [%] | EC50 (Neofusicoccum luteum [7]) [mgAi/L] | EC50 (Neofusicoccum australe [8]) [mgAi/L] | EC50 (Neofusicoccum luteum [9]) [mgAi/L] | EC50 (Neofusicoccum australe [10]) [mgAi/L] | Activity (Neofusicoccum luteum [11]) [%] | Activity (Neofusicoccum luteum [12]) [%] | Activity (Neofusicoccum luteum [13]) [%] | EC50 (Diplodia mutila [16]) [mgAi/L] | also measured
COC(=O)Nc1nc2ccccc2[nH]1 [CARBENDAZIM] | 0.01 | 7 | 10 | 27 | 0.04 | 0.01 | 0.061 | 0.023 | 9 | 0 | 3 |  | Activity (Neofusicoccum luteum [1]): 0%; Activity (Neofusicoccum luteum [2]): 33.2 mm
N#Cc1c(Cl)c(Cl)c(Cl)c(C#N)c1Cl [CHLOROTHALONIL] | 1.35 |  |  |  | 11.15 | 10.79 | 7.873 | 3.847 |  |  |  | 0.258 | Activity (Neofusicoccum luteum [14]): 51.9 mm; Activity (Neofusicoccum luteum [15]): 30%
N#Cc1sc2c(=O)c3ccccc3c(=O)c=2sc1C#N [DITHIANON] | 11.39 |  |  |  | 19.11 | 19.1 | 73.41 | 58.897 |  |  |  | 44.87 | Activity (Neofusicoccum luteum [17]): 30%; Activity (Neofusicoccum luteum [18]): 49.6 mm
OC(c1ccc(Cl)cc1)(c1cncnc1)c1ccccc1Cl (stereo unspecified) [FENARIMOL] | 0.48 | 20 | 40 | 77 | 7.44 | 22.5 | 0.399 | 0.58 | 27 | 0 | 0 | 0.076 | Activity (Neofusicoccum luteum [19]): 52.8 mm; Activity (Neofusicoccum luteum [20]): 20%
C[Si](Cn1cncn1)(c1ccc(F)cc1)c1ccc(F)cc1 [FLUSILAZOLE] | 0.56 | 0 | 0 | 0 | 1.23 | 1.34 | 0.003 | 0.002 | 0 | 0 | 0 | 0.001 | Activity (Neofusicoccum luteum [21]): 0%; Activity (Neofusicoccum luteum [22]): 41.4 mm
CC(C)NC(=O)N1CC(=O)N(c2cc(Cl)cc(Cl)c2)C1=O [IPRODIONE] | 0.03 | 30 | 53 | 83 | 0.04 | 0.05 | 0.314 | 0.273 | 34 | 0 | 3 | 0.247 | Activity (Neofusicoccum luteum [23]): 0%; Activity (Neofusicoccum luteum [24]): 39.9 mm
COCC(=O)N(c1c(C)cccc1C)C(C)C(=O)OC (stereo unspecified) [METALAXYL] | 45.72 |  |  |  | 218.01 | 113.11 | 188 | 102.6 |  |  |  | 61.995 | 
CCCN(CCOc1c(Cl)cc(Cl)cc1Cl)C(=O)n1ccnc1 [PROCHLORAZ] | 22.97 | 40 | 67 | 97 | 46.86 | 13.23 | 0.054 | 0.098 | 43 | 0 | 13 | 0.001 | Activity (Neofusicoccum luteum [25]): 60.5 mm; Activity (Neofusicoccum luteum [26]): 70%
CC12CC1(C)C(=O)N(c1cc(Cl)cc(Cl)c1)C2=O (stereo unspecified) [PROCYMIDONE] |  | 20 | 40 | 70 | 0.02 | 0.01 | 0.183 | 0.23 | 27 | 0 | 7 | 0.227 | Activity (Neofusicoccum luteum [27]): 20%; Activity (Neofusicoccum luteum [28]): 47.8 mm
CC(C)(C)C(O)(CCc1ccc(Cl)cc1)Cn1cncn1 (stereo unspecified) [TEBUCONAZOLE] | 0.6 | 13 | 27 | 37 | 6.23 | 3.38 | 0.076 | 0.098 | 16 | 0 | 3 | 0.01 | Activity (Neofusicoccum luteum [29]): 20%; Activity (Neofusicoccum luteum [30]): 50.2 mm
COC(=O)NC(=S)Nc1ccccc1NC(=S)NC(=O)OC [THIOPHANATE METHYL] | 0.29 | 17 | 33 | 47 | 2.41 | 5.09 | 1.237 | 1.079 | 20 | 0 | 3 | 0.485 | Activity (Neofusicoccum luteum [31]): 53.3 mm; Activity (Neofusicoccum luteum [32]): 30%
O=CNC(N1CCN(C(NC=O)C(Cl)(Cl)Cl)CC1)C(Cl)(Cl)Cl (stereo unspecified) [TRIFORINE] | 49.59 |  |  |  | 159.9 | 126.3 | 23.73 | 28.139 |  |  |  | 0.039 | 
COPPER HYDROXIDE [listing 1 of 2 here] | 4.16 |  |  |  | 8.7 | 5.68 | 77.437 | 106.83 |  |  |  | 68.64 | 
COPPER HYDROXIDE [listing 2 of 2 here] |  |  |  |  |  |  |  |  |  |  |  |  | Activity (Neofusicoccum luteum [33]): 20%; Activity (Neofusicoccum luteum [34]): 41.9 mm
